According to US20260306460A1, “COMPOSITION FOR REMOVING AND INHIBITING SENESCENT CELLS, AND USES THEREOF” (LIFECEUTIX CO., LTD., priority 2023, published 2026):

How the values were obtained:
SAOS-2 = assay: Suppression of doxorubicin-senescent SAOS-2 tumors in nude mice, Example 19; assay type: in vivo, mouse; details: after DOX 10 mg/kg ip; 21 days daily; LX-5701 360 mg/kg po, LX-2101 20 mg/kg ip, LX-2102 10 mg/kg ip; DOX repeated as control
Description: Seven-week-old male BALB/c nude mice (KRIBB Laboratory Animal Resource Center) were acclimated to the experimental environment for one week, after which they were randomly assigned to experimental and control groups. Evaluation was performed using the same method as in Example 2-1 of WO2023-085787 A1. Cultured human osteosarcoma cell lines, SAOS-2 (10^6 cells), were mixed in phosphate-buffered saline (PBS) and administered subcutaneously to anesthetized mice using 2% isoflurane (Sigma). When the tumors reached approximately […], doxorubicin (10 mg/kg) was mixed in a 1:1 solution of distilled water and PBS (pH 7.2) and administered intraperitoneally to induce tumor senescence. After 10 days, LX-5701 mixed in PBS at a concentration of 360 mg/kg was administered orally daily for 21 days, or LX-2101 mixed in PBS solution with 5% DMSO at a concentration of 20 mg/kg or LX-2102 mixed in PBS with 5% DMSO at a concentration of 10 mg/kg was administered intraperitoneally daily for 21 days, and then the tumor size was measured. The control group was repeatedly administered a solution mixed with doxorubicin, and then the tumor size was measured.

[1] = tested on: doxorubicin-induced aged C57BL6J mice; assay: Bone marrow function (CAFC assay) in doxorubicin-aged mice, Example 22-12, Table 41; assay type: in vivo, mouse; details: bone marrow of doxorubicin-induced aged mice, 5 weeks of culture; untreated 1.8 (±0.1)
Description: Eight-week-old male C57BL6J mice (KRIBB Laboratory Animal Resource Center) were acclimated to the experimental environment for one week. Afterwards, the anticancer agent doxorubicin was administered intraperitoneally at a concentration of 10 mg/kg, inducing aging for more than 10 days. The aging-induced mice were randomly assigned to experimental and control groups. LX-403 was mixed with a 10% ethanol solution of PEG400 and administered orally at a concentration of 25 mg/kg or intradermally at a concentration of 1 μM for 21 days. LX-1801 was mixed in distilled water with 4% DMSO, 30% PEG300, and 5% Tween80 and administered intradermally at a concentration of 0.4 μM daily for 21 days. LX-2001 was mixed in PBS and administered intradermally at a concentration of 2 μM daily for 21 days. LX-2002 was mixed in distilled water with 4% DMSO, 30% PEG300, and 5% Tween80 and administered intradermally at a concentration of 2 μM daily for 21 days. […] LX-2005 was mixed in distilled water with 4% DMSO, 30% PEG300, and 5% Tween80 and administered intradermally at a concentration of 90 μM daily for 21 days. LX-2007 was mixed in distilled water with 4% DMSO, 30% PEG300, and 5% Tween80 and administered intradermally at a concentration of 90 μM daily for 21 days. […] LX-3002 was mixed in distilled water with 4% DMSO, 30% PEG300, and 5% Tween80 and administered orally at a concentration of 10 mg/kg daily for 21 days. […] LX-5411 was mixed in 5% phosphate-buffered saline (PBS) and administered orally at a concentration of 10 mg/kg daily for 21 days or intradermally at a concentration of 3 μM. LX-5701 was mixed in PBS and administered orally at a concentration of 360 mg/kg daily for 21 days. LX-6807 was mixed in saline and administered intraperitoneally at a concentration of 1 mg/kg daily for 21 days. The control group received only the solution in the same volume. After the end of drug administration, the methods described in each example below were performed.
Damage to the immune system, including the bone marrow, after chemotherapy is known to induce inflammatory responses and contribute to drug resistance and adverse effects. To analyze the function of bone marrow hematopoietic cells in mice induced to age by the anticancer agent, a cobblestone-area-forming-cell (CAFC) assay was performed. Specifically, bone marrow cells (BMCs) were collected from the femurs and tibias of mice, and BM-MNCs (mono-nuclear cells) were cultured in MethoCult™ GF M3434 methylcellulose medium (Stem Cell™ Technologies Inc, Canada). FBMD-1 stromal cells were seeded in each well of a 96-well plate to prepare a support cell stromal layer. […] After 5 weeks of culture, CAFCs were counted using an optical microscope.

C57BL6-ApoE−/− mice = assay: Atherosclerosis in ApoE-/- mice (p16 mRNA, vascular plaque), Example 27, Table 51; assay type: in vivo, mouse; details: high-fat diet ApoE−/− mice; for p16 mRNA: aortic arch of thoracic aorta, untreated 100%; for Plaque number: thoracic aorta, Oil Red O, untreated 21.4 (±5.7)
Description: Fifteen-week-old male C57BL6-ApoE^−/−-mice (SLC) with atherosclerosis induced by a high-fat diet in the same manner as in Example 9-1 of WO2023-085787 A1 were acclimated to the experimental environment for one week and then randomly assigned to experimental and control groups. […] The control group was administered only the solution in the same volume. After the drug administration was terminated, the mice were sacrificed, and RNA was extracted from the aortic arch of the thoracic aorta using the same method as Example 7-2 of WO2023-085787 A1, and qRT-PCR was performed using the synthesized cDNA. In addition, the remaining part of the thoracic aorta was dissected, fixed flat in 4% paraformaldehyde at room temperature for 12 hours, and the vascular plaque was stained with Oil Red O using the same method as Example 23-5. […] The mRNA amount after aging was induced was calculated as 100% and compared with the mRNA amount of p16 after treatment with the test compound.

senescent A549 cells = assay: Viability of senescent A549 cells (CellTiter-Glo), Example 18, Table 15; details: Homo sapiens, A549, read-out: Survival (%)
Description: Senescence-induced cancer cells treated with doxorubicin were treated with the test compound at designated concentrations, and cell viability was measured using the CellTiter-Glo Luminescent Cell Viability Assay (Promega).

| Compound | Tumor Diameter (SAOS-2) | CAFCs/10^5 BMCs [1] | p16 mRNA (C57BL6-ApoE−/− mice) | Plaque number (C57BL6-ApoE−/− mice) | viability at 1.1 µM (senescent A549 cells) [%] | viability at 10 µM (senescent A549 cells) [%] | viability at 30 µM (senescent A549 cells) [%] |
| --- | --- | --- | --- | --- | --- | --- | --- |
| CC1(C)CC[C@]2(NC(=O)C(C)(F)F)CC[C@]3(C)[C@H](C(=O)C=C4[C@@]5(C)C=C(C#N)C(=O)C(C)(C)[C@@H]5CC[C@]43C)[C@@H]2C1 [LX-2101, Omaveloxolone] | 6.8 (±1.4) mm | – | – | – | – | – | – |
| COC(=O)[C@]12CCC(C)(C)C[C@H]1[C@H]1C(=O)C=C3[C@@]4(C)C=C(C#N)C(=O)C(C)(C)[C@@H]4CC[C@@]3(C)[C@]1(C)CC2 [LX-2102, Bardoxolone methyl] | 7.1 (±2.6) mm | – | – | – | – | – | – |
| CCCC\C=C/C=C/C=C\CCCCCCCC(=O)O [LX-2707, Punicic acid] | – | 2.7 (±0.2) CAFCs/10^5 BMCs | 81 (±6.0) % | 19.4 (±3.6) | – | – | – |
| COC(=O)[C@H]1Cc2c([nH]c3ccccc23)[C@H](c2ccc(S(C)(=O)=O)cc2)N1C(=O)CCl [LX-5401, methyl (1S,3R)-2-(2-chloroacetyl)-1-(4-(methylsulfonyl)phenyl)-2,3,4,9-tetrahydro-1H-pyrido[3,4-b]indole-3-carboxylate] | – | – | – | – | 92.7 | 43.8 | 1.9 |
| C#CC(=O)N1[C@@H](CCCC)Cc2cc(OC)ccc2[C@@H]1c1ccc(NC23CC4CC(CC(C4)C2)C3)cc1 [LX-5411] | – | – | – | – | 75.4 | 5.3 | – |
| O=C1C2CCN(CC2)C1CNC(=O)C(F)(F)F (centres unmarked) [LX-5701] | 6.1 (±4.9) mm | 3.3 (±0.2) CAFCs/10^5 BMCs | 71 (±12.8) % | 12.7 (±4.6) | 82.3 | 43.8 | 16.2 |
| Cc1cccc([C@H](C)c2cnc[nH]2)c1C [LX-6807, Dexmedetomidine] | – | 3.5 (±0.2) CAFCs/10^5 BMCs | 59 (±4.7) % | 15.3 (±2.4) | 94.1 | 76.5 | 6.6 |
| Tocofersolan [LX-3001] | – | 2.1 (±0.2) CAFCs/10^5 BMCs | 78 (±7.2) % | 17.5 (±4.2) | – | – | – |
